According to patent US12486259B2, “FXR agonist having pyrazine structure, and preparation method and use” (JIANGSU TASLY DIYI PHARMACEUTICAL CO., LTD., priority 2020, dated 2025):

Legend:
[1] = biological target: T1, GST-labeled recombinant human FXR protein (Homo sapiens, UniProt Q96RI1); assay: Agonistic activity on FXR receptor (GST-FXR / SRC-1 bead assay, protein level); assay type: biochemical; details: 0.4 nM FXR, 30 nM SRC-1, protein level
T1 construct: purchased Invitroren (so in the source)
T1 sequence (Q96RI1 262-486 limits assumed): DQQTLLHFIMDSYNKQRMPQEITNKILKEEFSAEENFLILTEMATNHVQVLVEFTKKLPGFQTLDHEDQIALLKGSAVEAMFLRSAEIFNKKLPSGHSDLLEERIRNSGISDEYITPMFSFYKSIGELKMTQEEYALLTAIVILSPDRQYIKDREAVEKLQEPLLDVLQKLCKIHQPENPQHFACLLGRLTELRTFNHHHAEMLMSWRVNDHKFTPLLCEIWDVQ
T1 sequence (Q15788 676-700 partner limits assumed): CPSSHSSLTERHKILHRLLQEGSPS
Protocol: Experimental procedures: FXR (GST-labeled recombinant human FXR protein, manufacturer: Invitroren, Item number: PV4835) and SRC-1 (steroid receptor co-activator-1) are thawed on ice. Three solutions of ABC are prepared by a buffer solution, solution A, 0.4 n M FXR and 30 nM SRC-1; solution B, 10 ug/ml Acceptor Beads; solution C, 10 ug/ml Donor Beads. Solution A is added to the plate at 15 uL per well. It is incubated at room temperature for 1 hour. Solution B is added to the plate at 7.5 uL per well. It is incubated at room temperature for 1 hour. Solution C is added to the plate at 7.5 uL per well. It is incubated at room temperature for 1 hour. It is read from the microplate reader Envision. The data are curve fitted by using Prism 5.0 to calculate the EC50.

FXR = biological target: T2, FXR (Homo sapiens, UniProt Q96RI1); assay: Intracellular FXR-TR-FRET experiment (pBIND-FXR / pG5Luc dual luciferase); assay type: cell-based; details: cellular level, 18 hours with compound
T2 construct: expressed in transfected cells
T2 sequence (Q96RI1 1-486): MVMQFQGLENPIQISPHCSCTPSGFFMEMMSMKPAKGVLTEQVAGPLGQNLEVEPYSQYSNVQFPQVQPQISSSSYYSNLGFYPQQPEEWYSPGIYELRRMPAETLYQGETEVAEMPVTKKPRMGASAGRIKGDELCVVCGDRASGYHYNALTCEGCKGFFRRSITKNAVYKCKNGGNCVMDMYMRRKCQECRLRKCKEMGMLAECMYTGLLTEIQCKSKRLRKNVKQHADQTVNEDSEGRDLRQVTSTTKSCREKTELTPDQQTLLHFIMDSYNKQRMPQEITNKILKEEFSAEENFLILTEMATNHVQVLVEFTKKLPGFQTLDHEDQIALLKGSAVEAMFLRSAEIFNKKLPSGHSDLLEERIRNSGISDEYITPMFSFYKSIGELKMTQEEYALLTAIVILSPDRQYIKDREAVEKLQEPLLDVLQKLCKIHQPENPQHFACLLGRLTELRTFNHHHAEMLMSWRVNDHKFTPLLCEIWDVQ
Protocol: • 1. Cell culture: a, trypsinize dishes and seed cells are taken with appropriate density in 10 ml of complete […] at 37° C. b. Cells are incubated for 24 hours in 5% CO2 and humidified. • 2. Cell inoculation and transfection: FuGENE HD transfection reagent is used as a transfection reagent. • a. The transfection mixture is prepared according to the following procedure:
• b. The tube is tapped vigorously to mix the contents. The mixture is incubated at room temperature for 15 minutes. • c. Discs are trypsinized and cell density is determined. • d. The cytolymph is diluted to the desired volume at a density of 500,000 cells/ml (100 ul/well for 96-well plate). • e. The required volume of previously prepared transfection mixture is added to both cytolymph, and then 100 ul/well of cytolymph is dispensed onto the assay plate. • f. The assay plate is incubated under humidified conditions at 37° C., 5% CO2 for 24 hours. • 3. Compound preparation: • a. Compound stocks are prepared with a FXR working concentration of 10 mM and then diluted 3-fold in 100% DMSO. • b. 10 ul compound is added to 90 ul complete medium. • c. 5 ul compound solution is added to each well. • d. The plate is incubated at 37° C., 5% CO2 and humidified for 18 hours. • 4. Dual luciferase assay: the firefly and Renilla luciferase signals are analyzed by Dual Luciferase Reporter Assay System from Promega. Envision is used as a photometer. • 5. Result calculation: data values are normalized by dividing the firefly signal by the Renilla signal. “F/R” means “firefly/Renilla”. This normalization eliminates differences in different cell numbers and transfection efficiencies in each well. The % Activation value is calculated. The % Activation value is calculated by the following formula.
X is the “F/R” value for each concentration point. The minimum value is the average “F/R” value for the no compound control. The maximum value is the average “F/R” value of the reference compound control. • 6.

SMILES | EC50 [1] | EC50 (FXR)
CC(C)c1onc(-c2c(Cl)cccc2Cl)c1COc1cnc(C2(O)CC(c3cccc(C(=O)O)c3)C2)cn1 (centres unmarked) [TM-06, 3-(3-(5-(5-isopropyl-3-(2,6-dichlorophenyl)isoxazole-4-ylmethoxy)-2-pyrazine)-1-hydroxycyclobutane) benzoic acid] | 2410 nM | 1790 nM
Cc1cc(C(=O)O)cc(C2CC(O)(c3cnc(OCc4c(-c5c(Cl)cccc5Cl)noc4C(C)C)cn3)C2)c1 (centres unmarked) [TM-09, 3-(3-(5-((3-(2,6-dichlorophenyl)-5-isopropylisoxazol-4-yl)methoxy)pyrazine-2-yl)-3-hydroxycyclobutyl)-5-methyl benzoic acid] | 480 nM | 260 nM
O=C(O)c1cccc(N2CC(O)(c3cnc(OCc4c(-c5c(Cl)cccc5Cl)noc4C4CC4)cn3)C2)c1 [TM-02, 3-(3-(5-((5-cyclopropyl-3-(2,6-dichlorophenyl)isoxazol-4-yl)methoxy)pyrazine-2-yl)-3-hydroxyazetidin-1-yl) benzoic acid] | 2320 nM | 3140 nM
O=C(O)c1cccc(C2CC(O)(c3cnc(OCc4c(-c5c(Cl)cccc5Cl)noc4C4CC4)cn3)C2)c1 (centres unmarked) [TM-01, 3-(3-(5-(5-cyclopropyl-3-(2,6-dichlorophenyl)isoxazole-4-ylmethoxy)-2-pyrazine)-1-hydroxycyclobutane) benzoic acid] | 540 nM | 1280 nM
